Experimental data: patent US5780307A, “Immunosuppressive drug binding proteins and use” (priority 1996, dated 1998)
Values joined by “and” are separate entries in the source; they are usually repeats but may differ in a detail not shown here. Equal entries are not always repeated. Where two headings read alike, the source gives them in different places. Starred links: 1 amine or outer side, 2 acyl side, 3 side chain; linkers in the order of their positions; H or OH if unused. Residues, ends and D or L forms follow the SMILES beside them. *: point of attachment. pNA = O=[N+]([O-])c1ccc(N*)cc1; Suc = O=C(CCC(=O)[*:2])[*:1]

Legend:
[1] = system: purified 50-54 kDa binding protein (JURKAT cells); test: Binding competition curves, purified 50-54 kDa binding protein, LH-20 separation
Method: Binding of [^3 H-dihydro]-FK506 to this protein was inhibited in a dose-dependent manner by rapamycin (B50 =0. 1 nM), whereas binding of [^3 H]-CSA to this protein was not affected by rapamycin at concentrations as high as 300 nM.

[2] = system: JURKAT cell cytosol protein fractions; test: Binding and competition in JURKAT cytosol protein fractions; set-up: competition for CsA binding to 16-18 kDa and 50-54 kDa fractions / inhibition of [3H-dihydro]-FK-506 binding in all fractions: unit of the concentration uncertain
Method: This fraction (3.02 mg in 2.7 mL) was then passed through a BioSil-125 HPLC column at a flow rate of 1.0 mL/minute of 10 mM phosphate buffer, pH 6.8. Those fractions around the expected molecular weight (around 50 kDa) were tested for binding to [^3 H]

[3] = system: 34-37 kDa immunophilin (Jurkat cells); test: Radioreceptor assay / Scatchard analysis, purified 34-37 kDa immunophilin; format: binding
Method: Receptor density (Bmax), affinity (Kd) and Hill coefficients (nH) were obtained using EBDA and Ligand computer programs. Radioreceptor assay: The radioreceptor assay was done in a final volume of 250 μl. […] To assess total binding, 25 μL of 50 % ethanol alone was added to maintain a constant level of ethanol in the reaction. 100-150 μL of 5 mM phosphate buffer, pH 6.8, containing 0.2% Tween 20, was added. 2-5 μg protein solution in 50-100 μL was added to obtain a final reaction volume of 250 μL. Following a 20 minute incubation at 25° C. on a shaker, 200 μL of the reaction mixture was added to Sephadex LH-20 columns (Pharmacia Biotech, Piscataway, N.J., U.S.A.,1.8 mL bed volume) equilibrated with LH-20 assay buffer (20 mM Tris buffer, pH 7.2, 5 mM β-mercaptoethanol and 0.05% sodium azide).
SDS-PAGE electrophoresis: The protein from the gel filtration fraction was analyzed for purity using 10% SDS-PAGE electrophoresis in the presence and absence of mercaptoethanol and visualized using DAIICHI-II silver staining. […] The data were analyzed using EBDA and Ligand computer programs.

[4] = Storage stability of FK-506 in frozen blood; format: physicochemical; settings: frozen (-20° C.) blood
Method: The competition-type PBA was conducted as follows. […] Following a 20-minute incubation at 25° C., 100 μL of a reaction mixture was added to a 1.8 mL bed volume Sephadex LH-20 column preequilibrated with 20 mM Tris buffer, pH 7.2-5 mM 2-mercaptoethanol-0.05% NaN3. Elution with five 250 μL portions of this buffer completely separated free from protein-bound radioligand. The protein-bound radioactivity in the 1.25 mL of eluate was measured in 10 mL Optima Gold Scintillation Cocktail (Packard Chemicals, Meriden, Conn.) in a liquid scintillation spectrometer operating at 59% counting efficiency. […] All analyses were performed in duplicate.

[5] = system: 50-54 kDa binding protein (JURKAT cells)
Method: (§3) Association constants, specific binding activities, and numbers and types of binding sites can be obtained from Scatchard and Hill plots, using EBDA and LIGAND software.
(§4) Bound and free ligand were separated using the above-described LH-20 system.
(§5) The binding proteins purified in Example 5 were incubated with increasing amounts of labeled ligand and the binding data analyzed according to Scatchard.

[6] = target: 10-12 kDa binding protein (JURKAT cells) (Homo sapiens, UniProt P62942); settings: Scatchard analysis, 10-12 kDa (8-12 kDa) protein
Method: as §3, §5

[7] = system: 50-54 kDa binding protein (JURKAT cells); test: Scatchard / direct binding to purified 50-54 kDa immunophilin
Method: as §3, §4, §5

[8] = system: calf thymus 50-54 kDa immunophilin; test: Rotamase (peptidyl-prolyl cis-trans isomerase) assay, 50-54 kDa immunophilin; format: biochemical; set-up: key: no activity observed; settings: rotamase activity with this peptide as substrate
Method: (§1) Rotamase activity (cis-trans peptidyl-prolyl isomerase activity) may be assayed in purified immunophilins using the methods of Fischer et al., Nature, 337:476 (1989) and Lange et al., Nature 4 331:453 (1988), which are incorporated herein by reference.
(§2) Only peptidyl propyl cis-trans isomerase activity to kobs values of greater than about 0.5 min^-1 are considered significant. Values below this are not considered to be due to the catalytic properties of the protein being analyzed.

10-12 kDa immunophilin = test: Rotamase (peptidyl-prolyl cis-trans isomerase) assay, 10-12 kDa immunophilin; format: biochemical; set-up: key: no activity observed; settings: rotamase activity with this peptide as substrate
Method: as §1, §2

Sequence of 10-12 kDa binding protein (JURKAT cells) (P62942 whole entry): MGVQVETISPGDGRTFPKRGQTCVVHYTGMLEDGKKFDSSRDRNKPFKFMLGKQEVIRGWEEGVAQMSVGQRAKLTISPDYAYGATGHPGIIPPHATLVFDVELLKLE

**Q.** What does the source list for `C=CCC1C=C(C)CC(C)CC(OC)C2OC(O)(C(=O)C(=O)N3CCCCC3C(=O)OC(C(C)=CC3CCC(O)C(OC)C3)C(C)C(O)CC1=O)C(C)CC2OC` (stereo not drawn) [FK-506, tacrolimus]?
**A.** inhibition of binding of [3H]-CsA to the 50-54 kDa protein ([1]; all concentrations tested): inhibited; inhibition of binding of [3H]-CSA ([2]; isoelectric focusing fraction at pH 6.29): inhibited; displacement of bound radioligand from the binding sites ([3]; 1 μM unlabelled drug, 20 min): > 95%; time without variability in assay results on storage [4]: at least 30 days; Kd [5]: 1 to 10 nM and ~2 nM; binding capacity / specific binding activity [6]: about 0.5 nmol/mg; binding to purified 50-54 kDa binding protein [7]: bound

**Q.** Which “kobs, 50-54 kDa” value [8] does the source give for `CC(C)C[C@H](NC(=O)[C@@H]1CCCN1C(=O)[C@H](C)NC(=O)[C@H](C)NC(=O)CCC(=O)O)C(=O)Nc1ccc([N+](=O)[O-])cc1` [Suc--Ala--Ala--Pro--Leu--pNA] (Suc-AAPL-pNA) here?
**A.** 0.0075 s⁻¹

**Q.** What about the “kobs, 10-12 kDa” value (10-12 kDa immunophilin) of the same compound?
**A.** 0.93 min^-1

**Q.** What does the source list for `C[C@H](NC(=O)CCC(=O)O)C(=O)N[C@@H](CCC(N)=O)C(=O)N1CCC[C@H]1C(=O)N[C@@H](Cc1ccccc1)C(=O)Nc1ccc([N+](=O)[O-])cc1` [Suc--Ala--Gln--Pro--Phe--pNA] (Suc-AQPF-pNA)?
**A.** kobs, 50-54 kDa [8]: 0.00367 s⁻¹; kobs, 10-12 kDa (10-12 kDa immunophilin): 0.23 min^-1

**Q.** With `C[C@H](NC(=O)CCC(=O)O)C(=O)N[C@@H](CCC(=O)O)C(=O)N1CCC[C@H]1C(=O)N[C@@H](Cc1ccccc1)C(=O)Nc1ccc([N+](=O)[O-])cc1` [Suc--Ala--Glu--Pro--Phe--pNA] (Suc-AEPF-pNA) as the compound, how does the “kobs, 50-54 kDa” value [8] read?
**A.** a

**Q.** And the “kobs, 10-12 kDa” value (10-12 kDa immunophilin)?
**A.** a

**Q.** What does the source list for `C[C@H](NC(=O)CCC(=O)O)C(=O)NCC(=O)N1CCC[C@H]1C(=O)N[C@@H](Cc1ccccc1)C(=O)Nc1ccc([N+](=O)[O-])cc1` [Suc--Ala--Gly--Pro--Phe--pNA] (Suc-AGPF-pNA)?
**A.** kobs, 50-54 kDa [8]: 0.00667 s⁻¹; kobs, 10-12 kDa (10-12 kDa immunophilin): a

**Q.** What does the source list for `C[C@H](NC(=O)CCC(=O)O)C(=O)N[C@@H](Cc1c[nH]cn1)C(=O)N1CCC[C@H]1C(=O)N[C@@H](Cc1ccccc1)C(=O)Nc1ccc([N+](=O)[O-])cc1` [Suc--Ala--His--Pro--Phe--pNA] (Suc-AHPF-pNA)?
**A.** kobs, 50-54 kDa [8]: 0.001 s⁻¹; kobs, 10-12 kDa (10-12 kDa immunophilin): a

**Q.** What does the source list for `CC[C@H](C)[C@H](NC(=O)[C@H](C)NC(=O)CCC(=O)O)C(=O)N1CCC[C@H]1C(=O)N[C@@H](Cc1ccccc1)C(=O)Nc1ccc([N+](=O)[O-])cc1` [Suc--Ala--Ile--Pro--Phe--pNA] (Suc-AIPF-pNA)?
**A.** kobs, 50-54 kDa [8]: 0.00033 s⁻¹; kobs, 10-12 kDa (10-12 kDa immunophilin): 0.69 min^-1

**Q.** For `CC(C)C[C@H](NC(=O)[C@H](C)NC(=O)CCC(=O)O)C(=O)N1CCC[C@H]1C(=O)N[C@@H](Cc1ccccc1)C(=O)Nc1ccc([N+](=O)[O-])cc1` [Suc--Ala--Leu--Pro--Phe--pNA] (Suc-ALPF-pNA), which “kobs, 50-54 kDa” value [8] is on record?
**A.** 0.00267 s⁻¹

**Q.** And the “kobs, 10-12 kDa” value (10-12 kDa immunophilin)?
**A.** 1.61 min^-1

**Q.** With `C[C@H](NC(=O)CCC(=O)O)C(=O)N[C@@H](CCCCN)C(=O)N1CCC[C@H]1C(=O)N[C@@H](Cc1ccccc1)C(=O)Nc1ccc([N+](=O)[O-])cc1` [Suc--Ala--Lys--Pro--Phe--pNA] as the compound, how does the “kobs, 50-54 kDa” value [8] read?
**A.** 0.004 s⁻¹

**Q.** What about the “kobs, 10-12 kDa” value (10-12 kDa immunophilin) of the same compound?
**A.** 0.36 min^-1

**Q.** With `CCCC[C@H](NC(=O)[C@H](C)NC(=O)CCC(=O)O)C(=O)N1CCC[C@H]1C(=O)N[C@@H](Cc1ccccc1)C(=O)Nc1ccc([N+](=O)[O-])cc1` [Suc--Ala--Nle--Pro--Phe--pNA] as the compound, how does the “kobs, 50-54 kDa” value [8] read?
**A.** 0.00417 s⁻¹

**Q.** And the “kobs, 10-12 kDa” value (10-12 kDa immunophilin)?
**A.** 0.58 min^-1

**Q.** Which results are given for `C[C@H](NC(=O)CCC(=O)O)C(=O)N[C@@H](Cc1ccccc1)C(=O)N1CCC[C@H]1C(=O)N[C@@H](Cc1ccccc1)C(=O)Nc1ccc([N+](=O)[O-])cc1` [Suc--Ala--Phe--Pro--Phe--pNA]?
**A.** kobs, 50-54 kDa [8]: 0.003 s⁻¹; kobs, 10-12 kDa (10-12 kDa immunophilin): 3.0 min^-1

**Q.** What does the source list for `C[C@H](NC(=O)CCC(=O)O)C(=O)N[C@@H](Cc1c[nH]c2ccccc12)C(=O)N1CCC[C@H]1C(=O)N[C@@H](Cc1ccccc1)C(=O)Nc1ccc([N+](=O)[O-])cc1` [Suc--Ala--Trp--Pro--Phe--pNA] (Suc-AWPF-pNA)?
**A.** kobs, 50-54 kDa [8]: 0.00233 s⁻¹; kobs, 10-12 kDa (10-12 kDa immunophilin): 0.21 min^-1

**Q.** Which results are given for `O=C(O)CCC(=O)N[C@@H](Cc1ccccc1)C(=O)N1CCC[C@H]1C(=O)N[C@@H](Cc1ccccc1)C(=O)Nc1ccc([N+](=O)[O-])cc1` [Suc--Phe--Pro--Phe--pNA] (Suc-Phe-Pro-Phe-pNA)?
**A.** kobs, 50-54 kDa [8]: 0.001 s⁻¹; kobs, 10-12 kDa (10-12 kDa immunophilin): 0.63 min^-1

**Q.** For `CO[C@H]1C[C@@H]2CC[C@@H](C)[C@@](O)(O2)C(=O)C(=O)N2CCCC[C@H]2C(=O)O[C@H]([C@H](C)C[C@@H]2CC[C@@H](O)[C@H](OC)C2)CC(=O)[C@H](C)/C=C(\C)[C@@H](O)[C@@H](OC)C(=O)[C@H](C)C[C@H](C)/C=C/C=C/C=C/1C` [rapamycin], which IC50 ([1]; 1.8 pmol [3H-dihydro]-FK-506, 15 minutes at 25° C., read-out: B50, inhibition of [3H-dihydro]-FK506 binding) is on record?
**A.** 0.1 nM

**Q.** And the “effect on binding of [3H]-CSA to the 50-54 kDa protein” value ([1]; concentrations as high as 300 nM)?
**A.** not affected

**Q.** And the “inhibition of [3H-dihydro]-FK-506 binding in all fractions” value ([2]; 0.7 (unit uncertain))?
**A.** inhibited

**Q.** And the “competition for CsA binding to 16-18 kDa and 50-54 kDa fractions” value ([2]; 70 (unit uncertain))?
**A.** did not compete

**Q.** And the “binding to purified 50-54 kDa binding protein” value [7]?
**A.** bound

**Q.** What about the Kd ([7]; read-out: dissociation constant, 50-54 kDa protein, unit inferred) of the same compound?
**A.** 0.1 to 0.2 nM

**Q.** With `CCC[C@@H]1/C=C(\C)C[C@H](C)C[C@H](OC)[C@H]2O[C@@](O)(C(=O)C(=O)N3CCCC[C@H]3C(=O)O[C@H](/C(C)=C/[C@@H]3CC[C@@H](O)[C@H](OC)C3)[C@H](C)[C@@H](O)CC1=O)[C@H](C)C[C@@H]2OC` [tritiated dihydro FK506] as the compound, how does the Kd ([3]; saturation experiments, 0.25 to 20 nM) read?
**A.** 4.5 nM

**Q.** For `[3H]CC([3H])C[C@@H]1/C=C(\C)C[C@H](C)C[C@H](OC)[C@H]2O[C@@](O)(C(=O)C(=O)N3CCCC[C@H]3C(=O)O[C@H](/C(C)=C/[C@@H]3CC[C@@H](O)[C@H](OC)C3)[C@H](C)[C@@H](O)CC1=O)[C@H](C)C[C@@H]2OC` (stereo partly drawn) [tritiated dihydro FK506], which Hill coefficients ([3]; saturation experiments) is on record?
**A.** near unity
